The subject of one assay is BHL. The assay is classed as biochemical, Pseudomonas aeruginosa.
Another assay relates to OdDHL. Format: biochemical, Pseudomonas aeruginosa.
The subject of the next assay is E. coli D31. The assay is classed as cell-based.

Like-named read-outs stand apart in the source and are kept apart here. Ends that are not written are not given here.

With `O=S(=O)(F)Cc1ccccc1` [PMSF, phenylmethanesulphonyl fluoride], the “effect of pre-incubation of ES with inhibitor on BHL degradation” value in the assay on BHL is given as “degradation was prevented”. Moreover, the “effect of inhibitor on OdDHL degradation by ES” value in the assay on OdDHL was “inhibited”.

In the case of “Cecropin B (KWKVFKKIEKMGRNIRNGIVKAGPAIAVLGEAKAL; ends and bridges not checked; UniProt P01508 27-61, looked up) [Cecropin B (Sigma), anti-microbial standard]”, the antimicrobial plaque diameter with E. coli D31 (2 μl Cecropin B at 10 μg/ml) was 4.25 mm; with E. coli D31 (2 μl Cecropin B at 100 μg/ml), 8 mm.

Values taken from US20050260183A1, “Treatment of surfaces populated by bacteria with a lucilia sericata extract” (priority 2002, published 2005).
